{"source": "patent US20230391765A1", "about": "“HETEROBIFUNCTIONAL COMPOUNDS AS DEGRADERS OF ENL” (ICAHN SCHOOL OF MEDICINE AT MOUNT SINAI, priority 2020, published 2023)", "key": {"[1]": {"test_system": "ENL-dependent MLL-rearranged leukemia cells", "details": "cited from earlier work"}, "ENL target genes": {"test_system": "ENL target genes", "assay": "RT-qPCR of ENL target genes in MOLM13 cells", "type": "cell-based", "details": "MOLM13 cells, 8 μM for 24 h", "procedure": "MOLM13 cells were treated with LQ076-122 (FIG. 14A) and LQ081-108 (FIG. 14B) at 0.5, 1, 2, 4, and 8 μM for 24 h. […] RT-qPCR analysis was performed to detect the mRNA levels of selected ENL target genes.\nTotal RNA was extracted using the RNeasy Plus kit (Qiagen) and reverse-transcribed using the iScript cDNA Synthesis kit (Bio-Rad). RT-qPCR was performed using the Power SYBR Green PCR Master Mix (Applied Biosystems) on the CFX96 Real-Time PCR system (Bio-Rad). Gene expressions were calculated following normalization to 18s rRNA amounts using the comparative cycle threshold (Ct) method."}, "MV4; 11 cells": {"test_system": "MV4; 11 cells", "assay": "Apoptosis assay (FITC Annexin V), MV4; 11 cells", "type": "cell-based", "details": "11 cells, 1, 2 and 4 μM for 24 h", "procedure": "(§1) Apoptotic cells were measured by the FITC Annexin V Apoptosis Detection Kit (BD Biosciences).\n(§2) MV4; 11 or MOLM13 cells were seeded at 0.2×10^6 cells/mL density. Cells were treated with DMSO or ENL degraders at indicated concentrations. Each treatment was done in triplicates. After 24 h treatment, cells were collected and washed with ice-cold PBS once and resuspended in 250 μL of 1× binding buffer containing 5 μL of FITC-Annexin V and PI (BD Biosciences). After 15 min incubation at room temperature in the dark, 250 μL of 1× binding buffer was added and flow cytometry analysis was performed."}, "MOLM13 cells": {"test_system": "MOLM13 cells", "assay": "Apoptosis assay (FITC Annexin V), MOLM13 cells", "type": "cell-based", "details": "MOLM13 cells, 1, 2 and 4 μM for 24 h", "procedure": "as §1, §2"}}, "data": [{"smiles": "C[C@H]1CCCN1Cc1nc2cc(NC(=O)c3ccc4c(cnn4C)c3)ccc2[nH]1", "note": "[SGC-iMLLT, reference compound]", "values": [{"measurement": "inhibition of cell growth", "setting": "[1]", "result": "largely ineffective in inhibiting the growth"}, {"measurement": "ENL target gene expression (mRNA levels)", "setting": "ENL target genes", "result": "did not dramatically affect these genes"}, {"measurement": "induction of apoptosis", "setting": "MV4; 11 cells", "result": "but not the negative control compound LQ108-4 or SGC-iMLLT, induced apoptosis"}, {"measurement": "induction of apoptosis", "setting": "MOLM13 cells", "result": "but not the negative control compound LQ108-4 or SGC-iMLLT, induced apoptosis"}]}]}
